The values that follow come from US9139581B2 (PORTOLA PHARMACEUTICALS, INC., priority 2008, dated 2015).

Each structure is given as a SMILES string. A value given as a limit tells only on which side of the number the result lay.

One experiment has as its target T1, full length active recombinant SYK enzyme (Homo sapiens, UniProt P43405).
T1 construct: full length active recombinant SYK enzyme (Millipore, Calif.); purchased Millipore
Description: Inhibition of Syk tyrosine phosphorylation activity (LANCE TR-FRET). Conditions: Table 3; 1 nM SYK, 100 μM ATP; read-out: Syk IC50 code. It is filed as biochemical. The procedure:
The in vitro and in vivo human syk activities of the inventive compounds can be determined by various procedures known in the art, such as a test for their ability to inhibit the activity of human plasma syk. […] Inhibition of Syk Tyrosine Phosphorylation Activity Potency of candidate molecules for inhibiting syk tyrosine phosphorylation activity is assessed by measuring the ability of a test compound to inhibit syk-mediated tyrosine phosphorylation of a syk-specific substrate. SYK tyrosine phosphorylation activity is measured using the LANCETM Technology developed by Perkin Elmer Life and Analytical Sciences (Boston, Mass.). LANCETM refers to homogeneous time resolved fluorometry applications using techniques such as time-resolved fluorescence resonance energy transfer assay (TR-FRET) (see generally for procedures in Perkin Elmer Application Note-How to Optimize a Tyrosine Kinase Assay Using Time Resolved Fluorescence-Based LANCE Detection, wwww.perkinelmer.com/lifesciences). The assay principle involves detection of a phosphorylated substrate using energy transfer from a phosphospecific europium-labeled antibody to streptavidin-allophycocyanin as an acceptor. To test the ability of candidate molecules to inhibit SYK tyrosine phosphorylation activity, molecules are reconstituted in 30% DMSO and serially diluted 1:3 with the final dilution containing DMSO in the absence of the candidate molecule. The final DMSO concentration in the assay is 3%. Kinase assays are performed as a two part reaction. The first reaction is a kinase reaction and which comprises of a candidate molecule, full length active recombinant SYK enzyme (Millipore, Calif.) and biotin-labeled SYK-specific substrate biotin-[…]-OH. The second reaction involves termination of the kinase reaction and the simultaneous addition of the detection reagents-europium-labeled anti-phosphotyrosine reagent (Eu-W1024-PY100, Perkin Elmer, Boston, Mass.) and Streptavidin-Allophycocyanin detection reagent (SA-APC, Prozyme, Calif.). The kinase reaction is performed in a black U-bottom 96-well microtitre plate. […] The reaction is allowed to proceed for 1 hour at room temperature. […] The detection reagents are added to the reaction mixture at the following dilutions-1:500 for Eu-W1024-PY100 and 1:250 for SA-APC. The kinase reaction is terminated by the addition of 50 μL quench buffer containing the detection reagents. The detection is allowed to proceed for 1 hr at room temperature. Detection of the phosphorlated substrate in the absence and presence of inhibitors is measured in the TR-FRET instrument, Analyst HT ([…], Sunnyvale, Calif.) and the condition for measurements are set up using CriterionHost Release 2.0 ([…], Sunnyvale, Calif.). […] IC50s were derived by non-linear regression analysis.
On the technique in general: Time-resolved FRET reads energy transfer from a long-lived donor to a nearby acceptor.
For orientation: IC50 means the midpoint of a concentration-inhibition curve. `NC(=O)c1ccc(Nc2ncc(F)c(N[C@H]3CC[C@@H](N)CC3)n2)cc1` [Example 141, 4-(4-((1s,4s)-4-aminocyclohexylamino)-5-fluoropyrimidin-2-ylamino)benzamide]: the IC50 fell in the range of 0.1 to 1 µM. `CC(=O)N1CCN(c2ccc(Nc3ncc(C(N)=O)c(N4CCC(CNC(N)=O)CC4)n3)cc2)CC1` [Example 130, 2-(4-(4-acetylpiperazin-1-yl)phenylamino)-4-(4-(ureidomethyl)piperidin-1-yl)pyrimidine-5-carboxamide]: the IC50 is > 1 µM. Still for that read-out and setting: the value for `CC(=O)N1CCN(c2ccc(Nc3ncc(F)c(N[C@H]4CC[C@@H](N)CC4)n3)cc2)CC1` [Example 142, 1-(4-(4-(4-((1s,4s)-4-aminocyclohexylamino)-5-fluoropyrimidin-2-ylamino)phenyl)piperazin-1-yl)ethanone] was 0.1 to 1 µM; that for `N#CCC(=O)N1CCCC(Nc2nc(Nc3ccc(C(N)=O)cc3)nc3[nH]ccc23)C1` (stereo not drawn) [Example 110, 4-(4-(1-(2-cyanoacetyl)piperidin-3-ylamino)-7H-pyrrolo[2,3-d]pyrimidin-2-ylamino)benzamide] was > 1 µM; that for `NCC1CCN(c2nc(Nc3ccc4c(c3)CCC(=O)N4)ncc2Br)CC1` [Example 132, 6-(4-(4-(aminomethyl)piperidin-1-yl)-5-bromopyrimidin-2-ylamino)-3,4-dihydroquinolin-2(1H)-one] was 0.01 to 0.1 µM. For `CN1C(=O)CCc2cc(Nc3nc(Nc4ccc(F)cc4)c4c(-c5ccncc5)c[nH]c4n3)ccc21` [Example 112, 6-(4-(4-fluorophenylamino)-5-(pyridin-4-yl)-7H-pyrrolo[2,3-d]pyrimidin-2-ylamino)-1-methyl-3,4-dihydroquinolin-2(1H)-one], the IC50 was in the range of 0.1 to 1 µM.

Regarding `N#Cc1c[nH]c2nc(Nc3ccc(C(N)=O)cc3)nc(NC3CC3)c12` [Example 104, 4-(5-cyano-4-(cyclopropylamino)-7H-pyrrolo[2,3-d]pyrimidin-2-ylamino)benzamide], the IC50 fell in the range of 0.01 to 0.1 µM.

With `N[C@H]1CC[C@@H](Nc2nc(Nc3ccc4c(c3)CCC(=O)N4)ncc2F)CC1` [Example 140, 6-(4-((1s,4s)-4-aminocyclohexylamino)-5-fluoropyrimidin-2-ylamino)-3,4-dihydroquinolin-2(1H)-one], the IC50 was in the range of 0.1 to 1 µM. In the case of `CC(=O)N1CCN(c2ccc(Nc3nc(Nc4cccc(S(N)(=O)=O)c4)c4cc[nH]c4n3)cc2)CC1` [Example 96A, 3-(2-(4-(4-acetylpiperazin-1-yl)phenylamino)-7H-pyrrolo[2,3-d]pyrimidin-4-ylamino)benzenesulfonamide], the IC50 lay within 0.1 to 1 µM. Still for that read-out and setting: under `CS(=O)(=O)Cc1cccc(Nc2nc(NC3CCC3)c3cc[nH]c3n2)c1` [Example 77] stands 0.1 to 1 µM. Same read-out and setting: under `Clc1c[nH]c2nc(Nc3ccc4cn[nH]c4c3)nc(NC3CCC3)c12` [Example 50, 5-chloro-N4-cyclobutyl-N2-(1H-indazol-6-yl)-7H-pyrrolo[2,3-d]pyrimidine-2,4-diamine] stands 0.001 to 0.01 µM. Same read-out and setting: under `CC(=O)N1CCN(c2ccc(Nc3nc(NC4CCS(=O)(=O)C4)c4cc[nH]c4n3)cc2)CC1` (stereo not drawn) [Example 100A, 1-(4-(4-(4-(1,1-dioxy-tetrahydrothiophen-3-ylamino)-7H-pyrrolo[2,3-d]pyrimidin-2-ylamino)phenyl)piperazin-1-yl)ethanone] stands > 1 µM; under `CC(=O)N(C)c1ccc(Nc2nc(NCCCCCN)c3c(Br)c[nH]c3n2)cc1` [Example 67, N-(4-(4-(5-aminopentylamino)-5-bromo-7H-pyrrolo[2,3-d]pyrimidin-2-ylamino)phenyl)-N-methylacetamide], > 1 µM. Consider `CC(=O)N1CCN(c2ccc(Nc3nc(NCCOCCN)c4cc[nH]c4n3)cc2)CC1` [Example 93, 1-(4-(4-(4-(2-(2-aminoethoxy)amino)-7H-pyrrolo[2,3-d]pyrimidin-2-ylamino)phenyl)piperazin-1-yl)ethanone], for which the half-maximal inhibitory concentration (IC50) lay in the range of 0.1 to 1 µM. Turning to `CC(=O)N1CCN(c2ccc(Nc3ncc(F)c(N4CCN(C(N)=O)CC4)n3)cc2)CC1` [Example 125, 4-(2-(4-(4-acetylpiperazin-1-yl)phenylamino)-5-fluoropyrimidin-4-yl)piperazine-1-carboxamide], the IC50 is > 1 µM. On the same count and under the same terms, the value for `CC(=O)N1CCN(c2ccc(Nc3ncc(F)c(N4CCN(C(=O)CC#N)CC4)n3)cc2)CC1` [Example 137, 3-(4-(2-(4-(4-acetylpiperazin-1-yl)phenylamino)-5-fluoropyrimidin-4-yl)piperazin-1-yl)-3-oxopropanenitrile] was > 1 µM; that for `NC(=O)CNc1nc(Nc2ccc3cn[nH]c3c2)nc2[nH]ccc12` [Example 83, 2-(2-(1H-indazol-6-ylamino)-7H-pyrrolo[2,3-d]pyrimidin-4-ylamino)acetamide] was 0.1 to 1 µM; that for `CC(=O)N1CCN(c2ccc(Nc3nc(N4CCCC(C(N)=O)C4)c4nc[nH]c4n3)cc2)CC1` (stereo not drawn) [Example 118, 1-(2-(4-(4-acetylpiperazin-1-yl)phenylamino)-9H-purin-6-yl)piperidine-3-carboxamide] was 0.1 to 1 µM. For `CC(=O)N1CCN(c2ccc(Nc3ncc(F)c(N4CCC(NC(=O)CC#N)CC4)n3)cc2)CC1` [Example 136, N-(1-(2-(4-(4-acetylpiperazin-1-yl)phenylamino)-5-fluoropyrimidin-4-yl)piperidin-4-yl)-2-cyanoacetamide], the IC50 is > 1 µM. With `CC(=O)N1CCN(c2ccc(Nc3ncc(F)c(N4CCC(CO)CC4)n3)cc2)CC1` [Example 38, 1-(4-(4-(5-fluoro-4-(4-(hydroxymethyl)piperidin-1-yl)pyrimidin-2-ylamino)phenyl)piperazin-1-yl)ethanone], the IC50 is > 1 µM.

Take `CCOC(=O)CN1C(=O)CCc2cc(Nc3nc(NC4CCC4)c4cc[nH]c4n3)ccc21` [Example 69, Ethyl 2-(6-(4-(cyclobutyamino)-7H-pyrrolo-[2,3-d]pyrimidine-2-ylamino)-2-oxo-3,4-dihydroquinolin-1(2H)-yl)acetate]: the half-inhibitory concentration (IC50) was 0.01 to 0.1 µM. Turning to `CC(=O)N1CCN(c2ccc(Nc3nc(NC4CC4)c4c(-c5ccncc5)c[nH]c4n3)cc2)CC1` [Example 4, 1-(4-(4-(4-(cyclopropylamino)-5-(pyridin-4-yl)-7H-pyrrolo[2,3-d]pyrimidin-2-ylamino)phenyl)piperazin-1-yl)ethanone], the IC50 lay within 0.01 to 0.1 µM. The same measure, in the same setting: the value for `CNc1nc(Nc2ccc(N3CCN(C(C)=O)CC3)cc2)nc2[nH]cc(-c3ccncc3)c12` [Example 2, 1-(4-(4-(4-(methylamino)-5-(pyridin-4-yl)-7H-pyrrolo[2,3-d]pyrimidin-2-ylamino)phenyl)piperazin-1-yl)ethanone] was 0.1 to 1 µM. Regarding `CC(=O)N1CCN(c2ccc(Nc3nc(N[C@H](C)CO)c4cc[nH]c4n3)cc2)CC1` [Example 98A, (R)-1-(4-(4-(4-(1-hydroxypropan-2-ylamino)-7H-pyrrolo[2,3-d]pyrimidin-2-ylamino)phenyl)piperazin-1-yl)ethanone], the 50% inhibitory concentration (IC50) is 0.1 to 1 µM.

Consider `CNC(=O)COc1cccc(Nc2nc(Nc3ccc4cn[nH]c4c3)nc3[nH]ccc23)c1` [Example 78], for which the IC50 was in the range of 0.01 to 0.1 µM. With `CN(CC(=O)O)S(=O)(=O)c1ccc(Nc2nc(NC3CCC3)c3cc[nH]c3n2)cc1` [Example 55, 2-(4-(4-(cyclobutylamino)-7H-pyrrolo[2,3-d]pyrimidin-2-ylamino)-N-methylphenylsulfonamido)acetic acid], the IC50 lay within 0.01 to 0.1 µM.

Staying with this experiment, now noted: Table 4; 1 nM SYK, 100 μM ATP; read-out: syk IC50.
Take `CC(=O)N1CCN(c2ccc(Nc3nc(N4CCC(C(N)=O)CC4)c4cc[nH]c4n3)cc2)CC1` [Example 24, 1-(2-(4-(4-acetylpiperazin-1-yl)phenylamino)-7H-pyrrolo[2,3-d]pyrimidin-4-yl)piperidine-4-carboxamide]: the IC50 is 0.1 to 1 µM. On the same count and under the same terms, under `NC(=O)C1CCCN(c2nc(Nc3ccc4cn[nH]c4c3)ncc2F)C1` (stereo not drawn) [Example 26, 1-(2-(1H-indazol-6-ylamino)-5-fluoropyrimidin-4-yl)piperidine-3-carboxamide] stands 0.1 to 1 µM. As for `CC(C)(C)OC(=O)NCC1CCN(c2nc(Nc3ccc(C(N)=O)cc3)ncc2F)CC1` [Example 30, tert-butyl (1-(2-(4-carbamoylphenylamino)-5-fluoropyrimidin-4-yl)piperidin-4-yl)methylcarbamate], the IC50 was > 1 µM.

As for `NC(=O)C1CCN(c2nc(Nc3ccc(N4CCNCC4)cc3)nc3[nH]ccc23)CC1` [Example 23, 1-(2-(4-(piperazin-1-yl)phenylamino)-7H-pyrrolo[2,3-d]pyrimidin-4-yl)piperidine-4-carboxamide], the IC50 is > 1 µM.
